This is an account of results in patent publication US11084829B2, “Ubiquitin-specific-processing protease 7 (USP7) modulators and uses thereof” (RAPT THERAPEUTICS, INC., priority 2018, dated 2021).

The term IC50 denotes the concentration that inhibits the measured activity by half.

Sequence of USP7 (Q93009 whole entry): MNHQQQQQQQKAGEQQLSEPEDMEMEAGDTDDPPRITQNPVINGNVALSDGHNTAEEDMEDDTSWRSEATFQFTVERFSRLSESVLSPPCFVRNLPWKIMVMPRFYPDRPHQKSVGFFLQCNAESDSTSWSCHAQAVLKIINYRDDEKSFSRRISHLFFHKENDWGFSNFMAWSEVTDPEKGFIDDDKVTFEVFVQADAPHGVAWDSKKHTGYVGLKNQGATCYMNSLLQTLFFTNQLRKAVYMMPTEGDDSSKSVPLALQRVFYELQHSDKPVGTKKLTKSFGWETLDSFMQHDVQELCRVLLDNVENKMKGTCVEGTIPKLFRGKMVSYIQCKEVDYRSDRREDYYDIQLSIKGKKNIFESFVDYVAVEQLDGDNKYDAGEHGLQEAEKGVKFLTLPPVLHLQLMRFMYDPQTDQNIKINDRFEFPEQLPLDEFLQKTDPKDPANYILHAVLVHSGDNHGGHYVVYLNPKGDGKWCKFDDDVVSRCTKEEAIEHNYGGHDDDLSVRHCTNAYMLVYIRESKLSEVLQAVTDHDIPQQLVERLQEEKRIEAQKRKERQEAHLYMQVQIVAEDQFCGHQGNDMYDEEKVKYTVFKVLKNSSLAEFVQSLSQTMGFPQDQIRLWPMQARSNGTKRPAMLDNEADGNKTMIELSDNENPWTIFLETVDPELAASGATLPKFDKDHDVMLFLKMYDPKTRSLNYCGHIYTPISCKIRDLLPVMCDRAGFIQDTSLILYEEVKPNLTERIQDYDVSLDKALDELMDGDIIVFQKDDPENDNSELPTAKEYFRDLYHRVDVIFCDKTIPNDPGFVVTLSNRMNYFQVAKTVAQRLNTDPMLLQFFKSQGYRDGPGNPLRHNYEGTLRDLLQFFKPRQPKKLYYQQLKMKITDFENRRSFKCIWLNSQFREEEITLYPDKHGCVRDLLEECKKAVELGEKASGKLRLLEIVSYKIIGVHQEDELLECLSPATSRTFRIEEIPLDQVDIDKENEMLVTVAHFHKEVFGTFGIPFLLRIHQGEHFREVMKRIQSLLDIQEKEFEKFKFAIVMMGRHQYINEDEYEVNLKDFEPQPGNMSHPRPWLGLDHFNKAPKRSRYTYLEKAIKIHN

The test addresses USP7 (Homo sapiens, UniProt Q93009). Kind of test: USP7 inhibitory potency (IC50). In kind it is biochemical. As for the experimental part: Activity for compounds described herein is provided in Table 2, wherein potency levels are provided as follows: (Potency: USP7 IC50: A<0.01 μM; B=0.01-0.1 μM; C=>0.1 μM.
For the compound `Cc1cc(Cl)cc(-c2ncnc3cc(CN4C(=O)NCC(C)C4=O)sc23)c1C[C@@H]1CNCCO1` (stereo partly drawn) [Example 249, 3-((4-(5-chloro-3-methyl-2-(((R)-morpholin-2-yl)methyl)phenyl)thieno[3,2-d]pyrimidin-6-yl)methyl)-5-methyldihydropyrimidine-2,4(1H,3H)-dione], the IC50 was < 10 nM. Take `Cc1cc(Cl)cc(-c2ccnc3cc(CN4C(=O)CCC4=O)sc23)c1CN1CCNC(C)(C)C1` [Example 10, 1-((7-(5-chloro-2-((3,3-dimethylpiperazin-1-yl)methyl)-3-methylphenyl)thieno[3,2-b]pyridin-2-yl)methyl)pyrrolidine-2,5-dione]: the IC50 is < 10 nM. Take `Cc1cc(Cl)cc(-c2ncnc3cc(CN4C(=O)CCC4=O)sc23)c1C[C@@H]1CNCCO1` [Example 197, (R)-1-((4-(5-chloro-3-methyl-2-(morpholin-2-ylmethyl)phenyl)thieno[3,2-d]pyrimidin-6-yl)methyl)pyrrolidine-2,5-dione]: the IC50 is < 10 nM.

In the case of `Cc1cc(Cl)cc(-c2ccnc3cc(CN4C(=O)CCC4=O)sc23)c1CN1[C@@H](C)CN(C)C[C@@H]1C` [Example 29, 1-((7-(5-chloro-3-methyl-2-(((2S,6S)-2,4,6-trimethylpiperazin-1-yl)methyl)phenyl)thieno[3,2-b]pyridin-2-yl)methyl)pyrrolidine-2,5-dione], the IC50 was < 10 nM. The figure for `Cc1cc(Cl)cc(-c2ccnc3cc(Cn4c(=O)ccn(CC(F)(F)F)c4=O)sc23)c1CC1CNCCO1` (centres unmarked) [Example 109, 3-((7-(5-chloro-3-methyl-2-(morpholin-2-ylmethyl)phenyl)thieno[3,2-b]pyridin-2-yl)methyl)-1-(2,2,2-trifluoroethyl)pyrimidine-2,4(1H,3H)-dione] is < 10 nM. For `Cc1cc(Cl)cc(-c2ncnc3cc(CN4C(=O)NC(C(C)C)C4=O)sc23)c1C[C@@H]1CNCCO1` (stereo partly drawn) [Example 246, 3-((4-(5-chloro-3-methyl-2-(((R)-morpholin-2-yl)methyl)phenyl)thieno[3,2-d]pyrimidin-6-yl)methyl)-5-isopropylimidazolidine-2,4-dione], the concentration for half-maximal inhibition (IC50) is < 10 nM. For the compound `Cc1cc(Cl)cc(-c2ccnc3cc(CN4C(=O)CCN(C)C4=O)sc23)c1CC1CNCC2(CCC2)O1` (centres unmarked) [Example 144, 3-((7-(2-((5-oxa-8-azaspiro[3.5]nonan-6-yl)methyl)-5-chloro-3-methylphenyl)thieno[3,2-b]pyridin-2-yl)methyl)-1-methyldihydropyrimidine-2,4(1H,3H)-dione], the IC50 was < 10 nM.

`Cc1cc(Cl)cc(-c2ncnc3cc(CN4C(=O)C5CC5C4=O)sc23)c1CN1C[C@@H](C)NC[C@@H]1C` (stereo partly drawn) [Example 65, 3-((4-(5-chloro-2-(((2S,5R)-2,5-dimethylpiperazin-1-yl)methyl)-3-methylphenyl)thieno[3,2-d]pyrimidin-6-yl)methyl)-3-azabicyclo[3.1.0]hexane-2,4-dione]: the IC50 is < 10 nM. Then `Cc1cc(Cl)cc(-c2ncnc3cc(CN4CC(CO)CC4=O)sc23)c1C[C@@H]1CNCC(C)(C)O1` (stereo partly drawn) [Example 231, 1-((4-(5-chloro-2-(((R)-6,6-dimethylmorpholin-2-yl)methyl)-3-methylphenyl)thieno[3,2-d]pyrimidin-6-yl)methyl)-4-(hydroxymethyl)pyrrolidin-2-one], with 10 to 100 nM; and `Cc1cc(Cl)cc(-c2ncnc3cc(CN4C(=O)CN(C)C4=O)sc23)c1CN1C[C@@H](C)NC[C@@H]1C` [Example 80, 3-((4-(5-chloro-2-(((2S,5R)-2,5-dimethylpiperazin-1-yl)methyl)-3-methylphenyl)thieno[3,2-d]pyrimidin-6-yl)methyl)-1-methylimidazolidine-2,4-dione], with < 10 nM; and `Cc1cc(Cl)cc(-c2ncnc3cc(CN4C(=O)CSC4=O)sc23)c1CN1C[C@@H](C)NC[C@@H]1C` [Example 79, 3-((4-(5-chloro-2-(((2S,5R)-2,5-dimethylpiperazin-1-yl)methyl)-3-methylphenyl)thieno[3,2-d]pyrimidin-6-yl)methyl)thiazolidine-2,4-dione], with < 10 nM. On to `CN1CCC(=O)N(Cc2cc3ncnc(-c4cc(Cl)cc(Cl)c4CC4CNCC(C)(C)O4)c3s2)C1=O` (centres unmarked) [Example 210, 3-((4-(3,5-dichloro-2-((6,6-dimethylmorpholin-2-yl)methyl)phenyl)thieno[3,2-d]pyrimidin-6-yl)methyl)-1-methyldihydropyrimidine-2,4(1H,3H)-dione], for which the IC50 was < 10 nM. Take `Cc1cc(Cl)cc(-c2ccnc3cc(CN4C(=O)C5CC5C4=O)sc23)c1CN1CCCNC(C)C1` (centres unmarked) [Example 41, 3-((7-(5-chloro-3-methyl-2-((3-methyl-1,4-diazepan-1-yl)methyl)phenyl)thieno[3,2-b]pyridin-2-yl)methyl)-3-azabicyclo[3.1.0]hexane-2,4-dione]: the concentration for half-maximal inhibition (IC50) was in the range of 10 to 100 nM. As to `Cc1cc(Cl)cc(-c2ccnc3cc(Cn4c(=O)ccn(C)c4=O)sc23)c1CC1CNCCO1` (centres unmarked) [Example 108, 3-((7-(5-chloro-3-methyl-2-(morpholin-2-ylmethyl)phenyl)thieno[3,2-b]pyridin-2-yl)methyl)-1-methylpyrimidine-2,4(1H,3H)-dione], the IC50 was < 10 nM. Then `CC1(C)C2C(=O)N(Cc3cc4nccc(-c5cc(Cl)cc(Cl)c5CC5CNCCO5)c4s3)C(=O)C21` (centres unmarked) [Example 140, 3-((7-(3,5-dichloro-2-(morpholin-2-ylmethyl)phenyl)thieno[3,2-b]pyridin-2-yl)methyl)-6,6-dimethyl-3-azabicyclo[3.1.0]hexane-2,4-dione], with < 10 nM. Turning to `Cc1cc(Cl)cc(-c2ccnc3cc(CN4C(=O)CCC4=O)sc23)c1CN1C[C@H](C)N[C@@H](C)C1` [Example 25, 1-((7-(5-chloro-2-(((3 S,5 S)-3,5-dimethylpiperazin-1-yl)methyl)-3-methylphenyl)thieno[3,2-b]pyridin-2-yl)methyl)pyrrolidine-2,5-dione], the IC50 is < 10 nM. Then `COCc1cc2ncnc(-c3cc(Cl)cc(C)c3C[C@@H]3CNCC(C)(C)O3)c2s1` [Example 269, (R)-6-(4-chloro-2-(6-(methoxymethyl)thieno[3,2-d]pyrimidin-4-yl)-6-methylbenzyl)-2,2-dimethylmorpholine], with > 100 nM; and `Cc1cc(Cl)cc(-c2ccnc3cc(CN4C(=O)CCC4=O)sc23)c1CN1[C@H](C)CNC[C@@H]1C` [Example 22, 1-((7-(5-chloro-2-(((2R,6S)-2,6-dimethylpiperazin-1-yl)methyl)-3-methylphenyl)thieno[3,2-b]pyridin-2-yl)methyl)pyrrolidine-2,5-dione], with < 10 nM; and `Cc1cc(Cl)cc(-c2ncnc3cc(CN4C(=O)CCN(CCO)C4=O)sc23)c1C[C@@H]1CNCC(C)(C)O1` [Example 271, (R)-3-((4-(5-chloro-2-((6,6-dimethylmorpholin-2-yl)methyl)-3-methylphenyl)thieno[3,2-d]pyrimidin-6-yl)methyl)-1-(2-hydroxyethyl)dihydropyrimidine-2,4(1H,3H)-dione], with < 10 nM. Take `Cc1cc(Cl)cc(-c2ncnc3cc(CN4C(=O)C5C(C4=O)C5(C)C)sc23)c1C[C@@H]1CN(C(=O)C(F)(F)F)CCO1` (stereo partly drawn) [Example 201, 3-((4-(5-chloro-3-methyl-2-(((R)-4-(2,2,2-trifluoroacetyl)morpholin-2-yl)methyl)phenyl)thieno[3,2-d]pyrimidin-6-yl)methyl)-6,6-dimethyl-3-azabicyclo[3.1.0]hexane-2,4-dione]: the half-maximal inhibitory concentration (IC50) is 10 to 100 nM.
